Patent US11406721B2, “Compositions and methods for imaging cell populations” (The Regents of the University of California, priority 2016, dated 2022)

Columns and labels:
Type in all cases: physicochemical
[1] = Kinetic measurements of metal uptake into emulsion (UV-Vis); settings: emulsion from example 4
Experimental: FIG. 15. Time course of metalation of FETRIS nanoemulsion with Fe^3+. Shown is the metalation of emulsion B (70 μM pAn-FDK and 10 μM Fe^3+, 8 mM HCl, pH 2.1). A single exponential fit yields kobs=0.69±0.10 min^−1
Strong absorbance of aromatic diketone and its complexes permits facile kinetic investigation of metalation rates. In atypical measurement, emulsion from example 4 was diluted to 70 uM diketone (excess ligand, modeling radiolabeling conditions) into a solution of chosen pH and treated with 10 uM metal cations of relevance to medical imaging, including Fe^3+ (MRI), Cu^2+ (PET), Ga^3+ (PET, SPECT), Sc^3+ (PET), and In^3+ (SPECT). In all cases, UV-Vis spectral changes indicative of metal uptake into the fluorous phase were detected, proportional in magnitude to the amount of metal. For some metals, kinetic analysis was performed. The reaction time course fit well to a pseudo-first-order process with rate constant kobs (Table 4).

[2] = 19F relaxometry of organic solutions containing paramagnetic dpm complexes; settings: 50 mM complexes in 1:1 v/v PhCF3:acetone-d6, 9.4 T
Experimental: FIG. 10. ^19F relaxometry of organic solutions containing paramagnetic complexes. Relaxation rates of the CF3 group were measured in the presence of 50 mM tris-(dipivaloylmethanato) complexes Fe(dpm)3 (left) and Gd(dpm)3 (right) in 1:1 v/v PhCF3:acetone-d6 at 9.4 T in a sealed 5 mm NMR tubes. […] Solid lines are guide for the eye. While monomeric Fe(dpm)3 was highly soluble in PhCF3 alone, polymeric Gd(dpm)3 dissolved only in the presence of Lewis basic solvent acetone-d6. […] The observed ratio between R1(Gd) and R1(Fe) was 1.72-1.77, consistent with the expected 1.8-fold difference due to the S(S+1) term in Eq. S, curtailed by a slight increase in the distance of minimal approach due to the larger size of Gd.
To highlight the critical effect of viscosity on relaxation rates, we measured PRE caused by different metal ions in non-viscous organic solutions containing trifluorotoluene (PhCF3) and iron or gadolinium chelates of dipivaloylmethane, Fe(dpm)3 and Gd(dpm)3. Under these conditions, gadolinium provided higher R1 than iron, as expected from the greater spin of Gd^3+. […] In contrast, the divergent temperature dependence of R1 and R2 in FETRIS nanoemulsion (FIG. 3D) is indicative of slow molecular motion in the fluorous phase.

[3] = Small fluorinated diketones: relaxation enhancement and stability under EDTA competition and cell labeling; settings: metalated small fluorinated diketones
From the text: It may be necessary for sufficient stability to use fluorinated diketones with heavily fluorinated substituents that are well-miscible with other fluorinated agents known in the art to be useful for ^19F MRI.

[4] = 19F relaxometry of PFPE nanoemulsion doped with H-fod and metal chloride; settings: 9.4 T
From the text: FIG. 1. Comparison of iron and gadolinium diketonates (H-fod) as ^19F relaxation agents for PFPE. […] R1 and R2 values are reported for the main PFPE peak at −91.4 ppm.
FIG. 11. ^19F relaxometry of PFPE with metalated small diketones. PFPE nanoemulsion was doped in the fluorous phase with small fluorinated diketones H-fod and H-hfp. […] The left panels display broad ^19F NMR signals of CF2 groups of H-fod and H-hfp observed in the absence of metals indicating poor solubility of the ligands in the fluorous phase. […] The right panel show the time course of metalation of PFPE+H-fod nanoemulsion measured by ^19F relaxometry. R1 and R2 were measured for main PFPE peak at −91 ppm at different time points. The solid lines are guides for the eye. The appearance of orange color of Fe(fod)3 correlated with an increase in relaxation rates. Metalation of PFPE emulsions doped with H-fod with Fe^3+ was several orders of magnitude slower than metalation of emulsions containing pAn-FDK (FIG. 15).
Initially, the results of the PRE modeling [Example 2 and FIG. 9] using small molecules were tested. Fluorinated β-diketone H-fod (FIG. 1) was chosen as starting point. […] Addition of 0.7 mM FeCl3 led to the slow formation of orange-colored Fe(fod)3 and a commensurate increase in R1 from 2.3 to 27.0 s^−1 and in R2 from 4.0 to 85.6 s^−1 (at 9.4 T) of the major PFPE resonance (−91.4 ppm) by 24 hours (FIG. 11). With GdCl3, lower R1 (12.8 s^−1) and higher R2 (285 s^−1) values were obtained.

[5] = final [M^3+] 10 uM, [ligand] 70 uM, pH 2.1 (8 mM HCl)

| SMILES | enhancing relaxation [3] | stability under the conditions of EDTA competition and cell labeling [3] | further results |
| --- | --- | --- | --- |
| [Cl][Fe]([Cl])[Cl] [FeCl3] |  |  | kobs ([1]; final [M^3+] 5 uM, [ligand] 70 uM, pH 2.1 (8 mM HCl)): 0.79 min⁻¹; kobs [1, 5]: 0.70 min⁻¹ |
| [Cl][Ga]([Cl])[Cl] [GaCl3] |  |  | kobs [1, 5]: 0.043 min⁻¹ |
| CC(C)(C)C(=O)C=C(O)C(C)(C)C.CC(C)(C)C(=O)C=C(O)C(C)(C)C.CC(C)(C)C(=O)C=C(O)C(C)(C)C.[Gd] [Gd(dpm)3] |  |  | ratio between R1(Gd) and R1(Fe) [2]: 1.72-1.77 |
| O=C(/C=C(\O)c1ccccc1)C(F)F [H-bda] | highly effective | not stable enough |  |
| O=C(CC(=O)C(F)(F)F)c1ccccc1 [H-bta] | highly effective | not stable enough |  |
| CC(C)(C)/C(O)=C/C(=O)C(F)(F)C(F)(F)C(F)(F)F [H-fod] | highly effective | not stable enough | R1 of major PFPE resonance (−91.4 ppm) ([4]; PFPE nanoemulsion + 2.8 mM H-fod + 0.7 mM FeCl3, by 24 hours): 27.0 s⁻¹; R1 of major PFPE resonance ([4]; PFPE nanoemulsion + 2.8 mM H-fod with GdCl3): 12.8 s⁻¹; R1 of major PFPE resonance (−91.4 ppm) ([4]; PFPE nanoemulsion + 2.8 mM H-fod, before metal addition): 2.3 s⁻¹ |
| C/C(O)=C/C(=O)C(F)(F)C(F)(F)C(F)(F)F [H-hhd] | highly effective | not stable enough |  |
| C/C(O)=C/C(=O)C(F)(F)C(F)(F)C(F)(F)C(F)(F)C(F)(F)C(F)(F)F [H-tdd] | highly effective | not stable enough |  |
| O=C(CC(=O)C(F)(F)F)c1cccs1 [H-tta] | highly effective | not stable enough |  |
| [Cl-].[Cl-].[Cl-].[In+3] [InCl3] |  |  | kobs ([1]; final [M^3+] 2 uM, [ligand] 14 uM, pH ~5 (unbuffered H2O)): >10 min⁻¹; kobs ([1]; final [M^3+] 10 uM, [ligand] 70 uM, pH 7.4 HEPES): 0.0322 min⁻¹ |
